# Source: BindingDB's records for doi:10.1016/S0960-894X(01)80724-1 (1993)
# Target: Squalene synthase (Candida albicans)
# Assay: Inhibition of Candida albicans squalene synthase(SQS)
smiles,measurement,value
"C=C(CC[C@]12O[C@H](C(=O)O)[C@@](O)(C(=O)O)[C@](C(=O)O)(O1)[C@H](O)[C@H]2OC(=O)OC)[C@@H](OC(C)=O)[C@H](C)Cc1ccccc1 [(1S,3S,4S,5R,6R,7R)-1-((4S,5R)-4-Acetoxy-5-methyl-3-methylene-6-phenyl-hexyl)-4,6-dihydroxy-7-methoxycarbonyloxy-2,8-dioxa-bicyclo[3.2.1]octane-3,4,5-tricarboxylic acid]",IC50,> 200 nM
"C=C(CC[C@]12O[C@H](C(=O)O)[C@@](O)(C(=O)O)[C@](C(=O)O)(O1)[C@H](O)[C@H]2OC(C)=O)[C@@H](OC(C)=O)[C@H](C)Cc1ccccc1 [(1S,3S,4S,5R,6R,7R)-7-Acetoxy-1-((4S,5R)-4-acetoxy-5-methyl-3-methylene-6-phenyl-hexyl)-4,6-dihydroxy-2,8-dioxa-bicyclo[3.2.1]octane-3,4,5-tricarboxylic acid]",IC50,> 200 nM
"C=C(CC[C@]12O[C@H](C(=O)O)[C@@](O)(C(=O)O)[C@](C(=O)O)(O1)[C@H](OC(=O)CCCCCCc1ccccc1)[C@H]2O)[C@@H](OC(C)=O)[C@H](C)Cc1ccccc1 [(1S,3S,4S,5R,6R,7R)-1-((4S,5R)-4-Acetoxy-5-methyl-3-methylene-6-phenyl-hexyl)-4,7-dihydroxy-6-(7-phenyl-heptanoyloxy)-2,8-dioxa-bicyclo[3.2.1]octane-3,4,5-tricarboxylic acid]",IC50,7 nM
"C=C(CC[C@]12O[C@H](C(=O)O)[C@@](O)(C(=O)O)[C@](C(=O)O)(O1)[C@H](OC(=O)/C=C/c1ccccc1)[C@H]2O)[C@@H](OC(C)=O)[C@H](C)Cc1ccccc1 [(1S,3S,4S,5R,6R,7R)-1-((4S,5R)-4-Acetoxy-5-methyl-3-methylene-6-phenyl-hexyl)-4,7-dihydroxy-6-[(E)-(3-phenyl-acryloyl)oxy]-2,8-dioxa-bicyclo[3.2.1]octane-3,4,5-tricarboxylic acid]",IC50,10 nM
"C=C(CC[C@]12O[C@H](C(=O)O)[C@@](O)(C(=O)O)[C@](C(=O)O)(O1)[C@H](OC(=O)CCCCCCC)[C@H]2OC(=O)CCCCCCC)[C@@H](OC(C)=O)[C@H](C)Cc1ccccc1 [(1S,3S,4S,5R,6R,7R)-1-((4S,5R)-4-Acetoxy-5-methyl-3-methylene-6-phenyl-hexyl)-4-hydroxy-6,7-bis-octanoyloxy-2,8-dioxa-bicyclo[3.2.1]octane-3,4,5-tricarboxylic acid]",IC50,> 200 nM
"C=C(CC[C@]12O[C@H](C(=O)O)[C@@](O)(C(=O)O)[C@](C(=O)O)(O1)[C@H](OC(=O)OCCCCCCCCC)[C@H]2O)[C@@H](OC(C)=O)[C@H](C)Cc1ccccc1 [(1S,3S,4S,5R,6R,7R)-1-((4S,5R)-4-Acetoxy-5-methyl-3-methylene-6-phenyl-hexyl)-4,7-dihydroxy-6-nonyloxycarbonyloxy-2,8-dioxa-bicyclo[3.2.1]octane-3,4,5-tricarboxylic acid]",IC50,2 nM
"C=C(CC[C@]12O[C@H](C(=O)O)[C@@](O)(C(=O)O)[C@](C(=O)O)(O1)[C@H](OC(=O)OCCCC)[C@H]2O)[C@@H](OC(C)=O)[C@H](C)Cc1ccccc1 [(1S,3S,4S,5R,6R,7R)-1-((4S,5R)-4-Acetoxy-5-methyl-3-methylene-6-phenyl-hexyl)-6-butoxycarbonyloxy-4,7-dihydroxy-2,8-dioxa-bicyclo[3.2.1]octane-3,4,5-tricarboxylic acid]",IC50,8 nM
"C=C(CC[C@]12O[C@H](C(=O)O)[C@@](O)(C(=O)O)[C@](C(=O)O)(O1)[C@H](O)[C@H]2OC(=O)CCCCCCC)[C@@H](OC(C)=O)[C@H](C)Cc1ccccc1 [(1S,3S,4S,5R,6R,7R)-1-((4S,5R)-4-Acetoxy-5-methyl-3-methylene-6-phenyl-hexyl)-4,6-dihydroxy-7-octanoyloxy-2,8-dioxa-bicyclo[3.2.1]octane-3,4,5-tricarboxylic acid]",IC50,> 200 nM
